Source: ChEMBL document CHEMBL1201862, “PubChem BioAssay data set” (2004)
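The compound was tested at five concentrations on cells cultured in 96-well plates, with a 48-hour exposure period. GI50 is the concentration that inhibits growth by half.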 Active and inactive are the calls of the source. Cut-off read from the data, not from the text of the source: active = GI50 up to about 1.1 µM and inactive = higher.

How the values were obtained:
Experiment in all cases: inhibition of tumour cell growth, NCI panel, 48 h
[1] = tested on: LOX IMVI
[2] = tested on: MOLT-4
[3] = tested on: IGROV-1
[4] = tested on: Malme-3M
[5] = tested on: KM12
[6] = tested on: BT-549
[7] = tested on: OVCAR-8
[8] = tested on: SK-MEL-28
[9] = tested on: NCI-H460
[10] = tested on: SF-539
[11] = tested on: SK-OV-3
[12] = tested on: EKVX
[13] = tested on: SK-MEL-2
[14] = tested on: 786-0
[15] = tested on: ACHN
[16] = tested on: M14
[17] = tested on: MCF7
[18] = tested on: HL-60
[19] = tested on: SW-620
[20] = tested on: PC-3
[21] = tested on: COLO 205
[22] = tested on: NCI/ADR-RES
[23] = tested on: HT-29
[24] = tested on: NCI-H226
[25] = tested on: SK-MEL-5
[26] = tested on: A498
[27] = tested on: SF-268
[28] = tested on: K562
[29] = tested on: HCT-15
[30] = tested on: HCT-116
[31] = tested on: MDA-MB-231
[32] = tested on: TK-10
[33] = tested on: MDA-MB-435
[34] = tested on: UACC-62
[35] = tested on: HOP-62
[36] = tested on: A549
[37] = tested on: UO-31
[38] = tested on: OVCAR-3
[39] = tested on: CCRF-CEM
[40] = tested on: SF-295
[41] = tested on: RPMI-8226
[42] = tested on: CAKI-1
[43] = tested on: HCC 2998
[44] = tested on: U-251
[45] = tested on: OVCAR-4
[46] = tested on: OVCAR-5
[47] = tested on: T47D
[48] = tested on: SR
[49] = tested on: RXF 393
[50] = tested on: NCI-H23
[51] = tested on: DU-145
[52] = tested on: UACC-257
[53] = tested on: SNB-19
[54] = tested on: SNB-75
[55] = tested on: Hs-578T
[56] = tested on: HOP-92
[57] = tested on: SN12C
[58] = tested on: NCI-H522
[59] = tested on: MDA-N

CC12CCC(/C(=N/c3cc(C(F)(F)F)cc(C(F)(F)F)c3)C1=O)C2(C)C (stereo not drawn)
GI50 [1]: 15.2 µM (inactive) | GI50 [2]: 17.4 µM (inactive) | GI50 [3]: 25.2 µM (inactive) | GI50 [4]: 33.4 µM (inactive) | GI50 [5]: 26.4 µM (inactive) | GI50 [6]: 32.5 µM (inactive) | GI50 [7]: 81.5 µM (inactive) | GI50 [8]: 25.8 µM (inactive) | GI50 [9]: 33.4 µM (inactive) | GI50 [10]: 22.9 µM (inactive) | GI50 [11]: > 100 µM (inactive) | GI50 [12]: 78.7 µM (inactive) | GI50 [13]: 18.8 µM (inactive) | GI50 [14]: 35.5 µM (inactive) | GI50 [15]: > 100 µM (inactive) | GI50 [16]: 30.6 µM (inactive) | GI50 [17]: 28.4 µM (inactive) | GI50 [18]: 1.04 µM (active) | GI50 [19]: 28.1 µM (inactive) | GI50 [20]: 27.5 µM (inactive) | GI50 [21]: 19.1 µM (inactive) | GI50 [22]: 44.3 µM (inactive) | GI50 [23]: 68.5 µM (inactive) | GI50 [24]: 86.7 µM (inactive) | GI50 [25]: 48.2 µM (inactive) | GI50 [26]: 22.3 µM (inactive) | GI50 [27]: 33.3 µM (inactive) | GI50 [28]: 29.6 µM (inactive) | GI50 [29]: 29.1 µM | GI50 [30]: 27.7 µM (inactive) | GI50 [31]: 36.9 µM (inactive) | GI50 [32]: 37.2 µM (inactive) | GI50 [33]: 38.3 µM (inactive) | GI50 [34]: 31.3 µM (inactive) | GI50 [35]: 39.8 µM (inactive) | GI50 [36]: 31.9 µM (inactive) | GI50 [37]: 52 µM (inactive) | GI50 [38]: 33.7 µM (inactive) | GI50 [39]: 0.453 µM (active) | GI50 [40]: 41.9 µM (inactive) | GI50 [41]: 17.8 µM (inactive) | GI50 [42]: 44 µM (inactive) | GI50 [43]: 26.3 µM (inactive) | GI50 [44]: 35.4 µM (inactive) | GI50 [45]: 44 µM (inactive) | GI50 [46]: 56.4 µM (inactive) | GI50 [47]: 19.8 µM (inactive) | GI50 [48]: 18.8 µM (inactive) | GI50 [49]: 12.3 µM (inactive) | GI50 [50]: 25.7 µM (inactive) | GI50 [51]: 40.6 µM (inactive) | GI50 [52]: 46.6 µM (inactive) | GI50 [53]: 49.4 µM (inactive)

O=C1C=CC(=NNc2ccccc2)C=CC1=O
GI50 [54]: 16.3 µM (inactive) | GI50 [1]: 5.09 µM (inactive) | GI50 [2]: 3.1 µM (inactive) | GI50 [3]: 7.94 µM (inactive) | GI50 [4]: 13.4 µM (inactive) | GI50 [5]: 12.4 µM (inactive) | GI50 [6]: 19.4 µM (inactive) | GI50 [7]: 20.4 µM (inactive) | GI50 [8]: 14.4 µM (inactive) | GI50 [9]: 11.3 µM (inactive) | GI50 [10]: 16 µM (inactive) | GI50 [11]: 26 µM (inactive) | GI50 [12]: 25.9 µM (inactive) | GI50 [13]: 15.1 µM (inactive) | GI50 [14]: 18.4 µM (inactive) | GI50 [15]: 8.05 µM (inactive) | GI50 [55]: 11 µM (inactive) | GI50 [16]: 12.9 µM (inactive) | GI50 [17]: 19.3 µM (inactive) | GI50 [18]: 14 µM (inactive) | GI50 [19]: 6.58 µM (inactive) | GI50 [56]: 17.5 µM (inactive) | GI50 [20]: 8.67 µM (inactive) | GI50 [21]: 13.5 µM (inactive) | GI50 [22]: 11.6 µM (inactive) | GI50 [23]: 13.6 µM (inactive) | GI50 [24]: 11.7 µM (inactive) | GI50 [25]: 11.5 µM (inactive) | GI50 [27]: 16.3 µM (inactive) | GI50 [28]: 7.64 µM (inactive) | GI50 [29]: 5.83 µM | GI50 [30]: 13.3 µM (inactive) | GI50 [31]: 14.9 µM (inactive) | GI50 [32]: 22.3 µM (inactive) | GI50 [33]: 12.9 µM (inactive) | GI50 [34]: 12.8 µM (inactive) | GI50 [35]: 10.8 µM (inactive) | GI50 [36]: 10.7 µM (inactive) | GI50 [37]: 17.8 µM (inactive) | GI50 [38]: 10.3 µM (inactive) | GI50 [40]: 6.85 µM (inactive) | GI50 [42]: 13.9 µM (inactive) | GI50 [57]: 16.7 µM (inactive) | GI50 [58]: 13.1 µM (inactive) | GI50 [44]: 7.71 µM (inactive) | GI50 [45]: 7.46 µM (inactive) | GI50 [46]: 20.8 µM (inactive) | GI50 [47]: 10.2 µM (inactive) | GI50 [48]: 1.72 µM (inactive) | GI50 [49]: 99.8 µM (inactive) | GI50 [50]: 14 µM (inactive) | GI50 [51]: 18 µM (inactive) | GI50 [52]: 18.8 µM (inactive) | GI50 [53]: 18.9 µM (inactive)

CCC12CN(C(=O)OC)C3C(Br)C1CCC(=O)C32 (stereo not drawn)
GI50 [54]: > 100 µM (inactive) | GI50 [1]: > 100 µM (inactive) | GI50 [2]: > 100 µM (inactive) | GI50 [3]: > 100 µM (inactive) | GI50 [4]: > 100 µM (inactive) | GI50 [5]: > 100 µM (inactive) | GI50 [59]: > 100 µM (inactive) | GI50 [7]: > 100 µM (inactive) | GI50 [8]: > 100 µM (inactive) | GI50 [9]: > 100 µM (inactive) | GI50 [10]: > 100 µM (inactive) | GI50 [11]: > 100 µM (inactive) | GI50 [12]: > 100 µM (inactive) | GI50 [13]: > 100 µM (inactive) | GI50 [14]: > 100 µM (inactive) | GI50 [15]: > 100 µM (inactive) | GI50 [55]: > 100 µM (inactive) | GI50 [16]: > 100 µM (inactive) | GI50 [17]: > 100 µM (inactive) | GI50 [18]: > 100 µM (inactive) | GI50 [19]: > 100 µM (inactive) | GI50 [56]: > 100 µM (inactive) | GI50 [20]: > 100 µM (inactive) | GI50 [21]: > 100 µM (inactive) | GI50 [22]: > 100 µM (inactive) | GI50 [23]: > 100 µM (inactive) | GI50 [24]: > 100 µM (inactive) | GI50 [25]: > 100 µM (inactive) | GI50 [26]: > 100 µM (inactive) | GI50 [27]: > 100 µM (inactive) | GI50 [28]: > 100 µM (inactive) | GI50 [29]: > 100 µM | GI50 [31]: > 100 µM (inactive) | GI50 [32]: > 100 µM (inactive) | GI50 [33]: > 100 µM (inactive) | GI50 [34]: > 100 µM (inactive) | GI50 [35]: > 100 µM (inactive) | GI50 [36]: > 100 µM (inactive) | GI50 [37]: > 100 µM (inactive) | GI50 [38]: > 100 µM (inactive) | GI50 [39]: > 100 µM (inactive) | GI50 [40]: > 100 µM (inactive) | GI50 [41]: > 100 µM (inactive) | GI50 [42]: > 100 µM (inactive) | GI50 [58]: 84.1 µM (inactive) | GI50 [43]: > 100 µM (inactive) | GI50 [44]: > 100 µM (inactive) | GI50 [45]: > 100 µM (inactive) | GI50 [46]: > 100 µM (inactive) | GI50 [47]: > 100 µM (inactive) | GI50 [48]: > 100 µM (inactive) | GI50 [49]: > 100 µM (inactive) | GI50 [50]: > 100 µM (inactive) | GI50 [51]: > 100 µM (inactive) | GI50 [52]: > 100 µM (inactive) | GI50 [53]: > 100 µM (inactive)
